Laboratory results as given in patent US12427148B2, “Cancer treatment targeted to tumor adaptive responses to protein synthesis stress” (priority 2018, dated 2025).

Assays:
[1] = system: Pten^fl/fl organoid cultures; experiment: 35S methionine incorporation (newly synthesized proteins) and ATF4 expression in organoid cultures; assay type: cell-based, mouse; conditions: ISRIB treatment
Protocol: (§1) To evaluate the effects of these key oncogenes on global protein synthesis, newly synthesized proteins were assessed by incorporation of ^35S-labeled methionine in organoid cultures. Primary mouse three-dimensional organoid cultures were established to recapitulate the cellular environment of the murine prostate gland ex vivo. Organoids were derived from dissociated mouse prostate tissue containing a mixed population of luminal and basal cell types to mimic the histology observed in vivo. Western blot analysis confirmed that Myc^Tg expression and PTEN loss were evident and associated with increased GFP expression and AKT phosphorylation. […] On the contrary, it was observed that an unanticipated but significant dampening in global protein synthesis occurred in Ptenfl/fl;MycTg mice (P=0.01), despite the fact that these mice developed more aggressive PCa (FIG. 1D).
(§2) A general UPR response may promote adaptation to proteotoxic and ER stress, whereas the activation of P-eIF2α could place a direct brake on the overwhelming burden of protein synthesis that occurs during more aggressive tumorigenesis. To test this hypothesis, the organoid cultures were employed, which recapitulate the in vivo phenotype. […]

[2] = system: Pten^fl/fl;Myc^Tg organoid cultures; experiment: 35S methionine incorporation (newly synthesized proteins) in organoid cultures; assay type: cell-based, mouse; conditions: Pten^fl/fl;Myc^Tg cells, ISRIB treatment
Protocol: as §1, §2

[3] = system: Pten^fl/fl;Myc^Tg mice prostate tumors; experiment: Preclinical trial in mice with developed prostate tumors, MRI prostate volume; assay type: in vivo
Protocol: (§3) To evaluate the necessity of P-eIF2α for promoting tumor growth or maintenance in vivo, a preclinical trial was conducted. Mice with developed tumors were imaged by magnetic resonance imaging (MRI) to confirm a measurable baseline of prostate volume per mouse and then grouped into cohorts for either vehicle or ISRIB treatment daily over the course of 6 weeks.

[4] = system: Pten^fl/fl mice prostate tumors; experiment: as above; assay type: in vivo, mouse
Protocol: as §3

[5] = system: RWPE-1 shPTEN;MYC^OE cells; experiment: Apoptosis (annexin V-positive cells by flow cytometry) in engineered human prostate epithelial cells; assay type: cell-based; conditions: 500 nM ISRIB for 9 hours, shPTEN;MYC^OE cells relative to control samples
Protocol: FIGS. 4A and 4B. FIG. 4A depicts quantification of annexin V-positive cells analyzed by flow cytometry relative to control cells after treatment with DMSO or 500 nM ISRIB for 9 hours (n=3, mean±SEM) *P<0.05, t test. FIG. 4B depicts Cox proportional hazards regression results in a Forest plot of hazard ratios and 95% CI for factors associated with risk of clinical progression after surgery. Independent factors are tumor with PTEN loss/low P-eIF2α or PTEN loss/high P-eIF2α versus a reference group with normal PTEN expression; age in years; PSA in nanograms per milliliter; Gleason score>7 versus 6; and pathological stage T3-T4 versus T2 at the time of prostatectomy.
To extend these observations directly to human disease, human cell lines were created to mimic the genetic mouse models. Human RWPE-1 epithelial cells were created to stably knock down PTEN (shPTEN) with or without MYC overexpression. The combination of PTEN loss with increased MYC expression activated PERK signaling and P-eIF2α, showing that the adaptive response that we had observed in mice is also triggered in human prostate cells.

mPCa-PDX tumor = experiment: Preclinical trial in patient-derived xenograft from lymph node metastasis; assay type: in vivo, mouse
Protocol: (§4) FIGS. 5A, 5B, 5C, 5D, 5E, 5F, and 5G. FIGS. 5A, 5B, and 5C depict quantification of protein expression as relative mean IF intensity normalized to adjacent stromal tissue for: FIG. 5A: benign, FIG. 5B PCa, and mPCa cell types. FIG. 5D and FIG. 5E depict Kaplan-Meier tumor survival curves for mice bearing pPCa (5D) or mPCa (5E) tumors treated with ISRIB (10 mg/kg) or vehicle (n=8, per cohort; **P=0.01, log-rank test). […] FIG. 5F depicts quantification of PDX tumors treated with vehicle or ISRIB (10 mg/kg); (n=3, ***P<0.001, t test). FIG. 5G depicts quantification of newly synthesized proteins in vivo, assessed by incorporation of OP-Puro within PDX treated with ISRIB (10 mg/kg) or vehicle (n=3 to 4 per arm, mean±SEM; *P<0.05, t test). n.s., not significant. MFI, mean fluorescence intensity.
(§5) Next, it was sought to functionally evaluate whether the UPR pathway could be targeted, specifically through P-eIF2α, in advanced human PCa. Although it is historically difficult to generate human prostate patient-derived xenograft (PDX) models, this was successfully achieved with similar characteristics to the Pten^fl/fl;Myc^Tg mice to assess the effects of ISRIB on cancer growth and mortality. In particular, two PDX models were generated: one derived from a primary tumor, herein referred to as pPCa, and one derived from a lymph node metastasis in the left internal iliac chain from the same patient, herein referred to as mPCa. […] A significant increase in P-eIF2α was observed only in the mPCa (P<0.01).
(§6) To test the therapeutic efficacy of ISRIB in human PCa, a preclinical trial was performed on the stably passaged PDX model.

pPCa-PDX tumor = experiment: Preclinical trial in patient-derived xenograft from primary tumor; assay type: in vivo, mouse
Protocol: as §4, §5, §6

mPCa PDX = experiment: Newly synthesized proteins in vivo by OP-Puro incorporation in PDX; parameters: species or system mouse; conditions: ISRIB 10 mg/kg
Protocol: as §4
(§7) Next, it was determined whether a metastatic PCa tumor, harboring high MYC and loss of PTEN activity in a complex genetic background of human PCa, relies on eIF2α phosphorylation as an adaptive response to restrain global protein synthesis. Therefore, newly synthesized proteins in vivo were assessed by measuring the incorporation of O-propargyl-puromycin (OP-Puro) within the primary and metastatic tumor-derived PDXs, which have low or high P-eIF2α, respectively. […] Within the area of intratumor ATF4 loss, apoptosis and decreased proliferation assessed by TUNEL and Ki67 staining of mPCa PDX was observed.

pPCa tumors = experiment: as above; parameters: species or system mouse; conditions: ISRIB 10 mg/kg
Protocol: as §4, §7

mCRPC PDX = experiment: Metastatic castration-resistant PCa PDX, survival and PSMA PET/CT imaging; assay type: in vivo, mouse
Text: In hormone-sensitive metastatic PCa, androgen deprivation therapy (ADT) remains the mainstay treatment; however, these tumors inevitably develop resistance to ADT and progress into the lethal form of metastatic castration-resistant PCa (mCRPC). Characterization of the hormone-sensitive metastatic disease has not been predictive of outcomes in the clinical setting of lethal mCRPC. To directly study the contribution of P-eIF2α to metastasis, an additional PDX (herein mCRPC PDX) was generated derived from a patient with mCRPC despite prolonged treatment with complete androgen blockage using leuprolide (ADT) and antiandrogen therapy (enzalutamide). Three weeks after implantation of the mCRPC tumor under the mouse renal capsule, tumor dissemination to the liver, distant kidney, lymph nodes, and spleen was observed.
To examine the role of P-eIF2α from the early stages of metastatic growth to late stages of dissemination, a prostate-specific membrane antigen [^68Ga-PSMA-11 PET/computed tomography (CT)] scan was used to trace the progression of very small metastases from early to late stages of dissemination, which were not visible by conventional imaging modalities such as ^18F-DG PET/CT. Prostate-specific membrane antigen (PSMA) is highly expressed on the surface of PCa cells and allows sensitive staging to evaluate therapy response in the clinical setting. […]

PERK = PERK inhibitor as described; cited from earlier work
[6] = pPCa-PDX, low P-eIF2α, ISRIB treatment

Structure (SMILES): O=C(COc1ccc(Cl)cc1)NC1CCC(NC(=O)COc2ccc(Cl)cc2)CC1 (stereo not drawn) [ISRIB]
- ATF4 expression [1]: decrease
- protein synthesis (newly synthesized proteins) [1]: not altered
- newly synthesized proteins [2]: marked increase
- tumor size by MRI ([3]; ISRIB-treated Pten^fl/fl;Myc^Tg mice, by 6 weeks): no progression in tumor size
- toxicity ([3]; Pten^fl/fl;Myc^Tg mice, daily ISRIB treatment): no signs of toxicity
- tumor size by MRI ([3]; Pten^fl/fl;Myc^Tg mice, daily ISRIB, 3 weeks): tumor regression within 3 weeks
- immune cell infiltration (CD45) ([3]; after 3 weeks of ISRIB treatment, regardless of prostate tumor genotype): no significant changes
- increase in growth over individual baseline measurements ([4]; by 6 weeks): ~40%
- tumor size by MRI ([4]; vehicle or daily ISRIB, 3 weeks): continued tumor growth
- apoptosis (annexin V-positive cells) [5]: marked increase in apoptosis
- cell death: TUNEL staining and cleaved caspase 3 expression (mPCa-PDX tumor; mPCa-PDX, after 9 days of ISRIB treatment): increased
- tumor size (mPCa-PDX tumor; mPCa-PDX, after 9 days of ISRIB treatment, P<0.01): significant tumor regression
- survival (mPCa-PDX tumor; mice bearing metastatic tumor with high P-eIF2α, ISRIB 10 mg/kg, P<0.01): significantly prolonged survival
- effectiveness of ISRIB treatment (survival) (pPCa-PDX tumor; pPCa tumor, ISRIB 10 mg/kg): short-lived
- cell death (pPCa-PDX tumor; [6]): no significant cell death
- tumor size (pPCa-PDX tumor; [6]): did not show regression but stabilized with eventual tumor regrowth
- global protein synthesis (OP-Puro incorporation) (mPCa PDX): marked increase
- global protein synthesis (OP-Puro incorporation) (pPCa tumors): no change
- survival (mCRPC PDX; mCRPC PDX mice bearing distal metastatic lesions, P=0.01): significantly prolonged survival
- metastases at distal sites by PSMA PET/CT (mCRPC PDX; mCRPC PDX mice treated with ISRIB): substantial metastatic regression
- IC50 (PERK): 5 nM
